Series [1] in a line: Liver microsomes stability and metabolite identification (LC-MS), dog. In kind it is in vitro ADME.
Series [2] in a line: Metabolite identification (LC-MS), sample 1, source of sample not given. Format: in vitro ADME. The source says: The objective of this study is to analyze in vitro samples of Compound A and Compound B from rat and human microsomes using liquid chromatography quadrupole ion trap mass spectrometry and identify the nature of the metabolite(s) for each species.
The HPLC system consisted of a Thermo Surveror autosampler and a Thermo Surveyor MS pump (San Jose, Calif., USA). The LC-MS/MS system used was a Thermo LCQ Advantage (San Jose, Calif., USA). Data was acquired on a Dell Optiplex desktop computer (Round Rock, Tex., USA) equipped with operation system Windows XP professional. Data acquisition and analysis were performed using XCalibur 1.4 (San Jose, Calif., USA).
After the incubation period of the liver microsomes, the reaction was stopped with the addition of acetonitrile and frozen for transport. Before analysis, the samples were thawed at room temperature. They were vortexed vigorously and centrifuged at approximately 12000 g for 10 minutes. The supernatant was transferred into an injection vial for analysis.
A gradient mobile phase was used with a Thermo Phenyl 100×2 mm column with particle size of 5 μm. The initial mobile phase condition consisted of methanol and 0.1% formic acid solution at a ratio of 20:80, respectively. From 0 to 2 minutes, the ratio was maintained at 20:80. From 2 to 10 minutes, a linear gradient was applied and a ratio of 90:10 was maintained from 10 to 12 minutes. […] The flow rate was fixed at 0.25 mL/min.
The mass spectrometer was interfaced with the HPLC system using a pneumatic assisted electrospray ion source. The sheath gas was set to 15 units and the ESI electrode was set to 4000 V (positive mode). The capillary temperature was set at 300° C., and the capillary voltage was set to 13 V. The mass spectrometer was operating in full scan MS mode using one segment analysis (200-800).

The target in the next series is T1, ASIC1a (Homo sapiens, UniProt P78348).
T1 sequence (P78348 1-528): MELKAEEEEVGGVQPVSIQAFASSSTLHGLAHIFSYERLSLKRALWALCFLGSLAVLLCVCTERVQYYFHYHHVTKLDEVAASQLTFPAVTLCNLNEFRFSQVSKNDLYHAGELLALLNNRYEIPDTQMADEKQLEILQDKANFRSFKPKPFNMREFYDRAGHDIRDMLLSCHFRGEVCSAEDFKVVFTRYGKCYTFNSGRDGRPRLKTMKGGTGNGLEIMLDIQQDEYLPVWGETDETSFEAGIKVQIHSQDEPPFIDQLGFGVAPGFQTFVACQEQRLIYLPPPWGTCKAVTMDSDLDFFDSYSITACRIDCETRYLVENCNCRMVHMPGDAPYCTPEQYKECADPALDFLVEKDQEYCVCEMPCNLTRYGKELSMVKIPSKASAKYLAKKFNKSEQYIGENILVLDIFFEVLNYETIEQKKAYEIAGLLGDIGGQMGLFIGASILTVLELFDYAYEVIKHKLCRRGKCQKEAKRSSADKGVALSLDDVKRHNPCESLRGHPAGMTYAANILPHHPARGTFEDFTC
The experiment in a line: Whole cell patch clamp in heterologous expression system (CHO cells). Format: cell-based. Further details: expressed in transfected cells; host or cells: CHO cells. The procedure:
Another example of an in vitro assessment method consists of using mammalian heterologous expression systems, which are known to the skilled in the art, and include a variety of mammalian cell lines such as COS, HEK, e.g., HEK293 and/or CHO, cells. Cell lines are transfected with gated ion channel(s) and used to perform electrophysiology as follows:
All experiments are performed at room temperature (20-25° C.) in voltage clamp using conventional whole cell patch clamp methods (Neher, E., et al. (1978) Pfluegers Arch 375:219-228).
The amplifier used is the EPC-9 (HEKA-electronics, Lambrect, Germany) run by a Macintosh G3 computer via an ITC-16 interface. Experimental conditions are set with the Pulse-software accompanying the amplifier. Data is low pass filtered and sampled directly to hard-disk at a rate of 3 times the cut-off frequency.
Pipettes are pulled from borosilicate glass using a horizontal electrode puller (Zeitz-lnstrumente, Augsburg, Germany). The pipette resistances are 2-3 MOhms in the salt solutions used in these experiments. The pipette electrode is a chloridized silver wire, and the reference is a silver chloride pellet electrode (In Vivo Metric, Healdsburg, USA) fixed to the experimental chamber. The electrodes are zeroed with the open pipette in the bath just prior to sealing.
Coverslips with the cells are transferred to a 15 μl experimental chamber mounted on the stage of an inverted microscope (IMT-2, Olympus) supplied with Nomarski optics. Cells are continuously superfused with extracellular saline at a rate of 2.5 ml/min. After giga-seal formation, the whole cell configuration is attained by suction. The cells are held at a holding voltage of −60 mV and at the start of each experiment the current is continuously measured for 45 s to ensure a stable baseline. […] Current amplitudes are measured at the peak of the responses, and effect of the compounds is calculated as the amplitude at compound equilibrium divided by the amplitude of the current evoked by the pulse just before the compound was included. […]

Where [3] appears, read: dog microsomes 60 min (samples 23-25).

Each structure is given as a SMILES string. Several values for one entry are separate records, joined by “and”; a condition that tells them apart may be missing. Identical values can stand only once.

Take `COc1ccc(F)cc1-c1cc2c(c3c1CCN(C)C3)NC(=O)C2=NO` [Compound A, 5-(5-fluoro-2-methoxyphenyl)-6,7,8,9-tetrahydro-3-(hydroxyimino)-8-methyl-1H-pyrrolo[3,2-h]isoquinoline-2(3H)-one]: the Total % metabolites in series [1] (% peak area relative to parent at T0, 60 min incubation, dog microsomes) worked out at 2.74%. Further, in series [1] (setting [3]), the “Compound A metabolite identification: m/z 342” value is “weak”, the “Compound A metabolite identification: m/z 356 (parent)” value was “Yes”, the “Compound A metabolite identification: m/z 372” value is “Yes” and the “Compound A metabolite identification: m/z 412” value is “no”. Besides, the “Calc. Conc.” value in series [1] (dog microsomes, time 0 min) is 4.71 µM and 5.14 µM. For the same compound, the “Calc. Conc.” value in series [1] (dog microsomes, time 60 min) is 3.95 µM and 4.05 µM and 4.10 µM. In series [2], the “Compound A metabolite identification: m/z 342” value is on record as “no”, the “Compound A metabolite identification: m/z 356 (parent)” value is “Yes”, the “Compound A metabolite identification: m/z 372” value is on record as “no” and the “Compound A metabolite identification: m/z 412” value is “no”. For the same compound, on ASIC1a, the “human ASIC1a pH-evoked response” value is listed as “reduce the human ASIC1a pH-evoked response in CHO cells in a dose-dependent manner” and the “potency relative to amiloride on human ASIC1a pH-evoked response” value is reported as “about 100 fold”.

The values are drawn from patent publication US20090246134A1, “COMPOSITIONS AND METHODS FOR MODULATING GATED ION CHANNELS” (PainCeptor Pharma Corporation, priority 2007, published 2009).
